Tests used:
[1] = Real time FT-IR curing performance in UViCure S105 at 365 and 385 nm; settings: for Polymerization rate Rp/[M0]*100 / Final conversion: UViCure S105, 20 μm thickness, under air; for Final conversion: epoxide band; for cure speed compared with photoinitiators known from prior art such as Omnicat BL 550: LED lamp conditions, Example 2
Experimental: The curing performance of individual products prepared above was assessed using real time FT-IR measurement. The photoinitiators were dissolved in cycloaliphatic epoxy resin UViCure S105 (available from Sartomer) at the indicated wt % loading, applied onto the FT-IR measurement plate and irradiated with the indicated LED light source. The polymerization rate and final reactive group conversion were determined by monitoring the change of the relevant infrared band near 900 cm^−1 corresponding to an epoxide ring during irradiation. The molar extinction coefficients for the photoinitiator products (ε, expressed in M^−1 cm^−1) were determined in acetonitrile at 10^-3 M or 10^-5 M concentration.

[2] = Real time FT-IR curing performance at 405 nm in neat TMPTA; settings: 20 μm thickness, laminated; for Acrylate Polymerization rate Rp/[M0]*100: LED @405 nm (110 W/cm^2); for Acrylate Final conversion: LED @405 nm (110 mW/cm^2)
Experimental: (§1) The curing performance of individual products prepared above was assessed using real time FT-IR measurement. The photoinitiators were dissolved either in neat trimethylolpropane triacrylate (TMPTA; available as SR351 from Sartomer) or in a 1:1 (w/w) mixture of TMPTA and UViCure S105 as indicated, applied onto the FT-IR measurement plate, laminated to prevent oxygen inhibition, and irradiated with the indicated LED light source. For the epoxy component, the polymerization rate and final reactive group conversion were determined by monitoring the change of the relevant infrared band near 900 cm^−1 corresponding to an epoxide ring. For the acrylate component, the C═C stretch band near 1625 cm^−1 was used.

[3] = Real time FT-IR curing performance at 405 nm in UViCure S105/TMPTA (1:1); settings: LED @405 nm (110 mW/cm^2), 20 μm thickness, laminated
Experimental: as §1

[4] = Solubility in propylene carbonate at ambient temperature; type: physicochemical; settings: 20-25° C.
Experimental: Solubility of selected sulfonium salts in propylene carbonate at ambient temperature (20-25° C.) was determined.

[5] = Thermal stability by DSC in UViCure S105E resin; type: physicochemical; settings: DSC at 10° C./min, loading 1 wt % (Omnicat BL550 4 wt %; Speedcure 938/CPTX 1/0.5 wt %)
[6] = Thermal stability by DSC in TMPTA/UViCure S105E (1:1) hybrid resin; type: physicochemical; settings: DSC at 10° C./min, loading 1 wt %
Experimental: Formulations comprising the photoinitiators and neat UViCure S105E resin and/or TMPTA resin were prepared as described at example 2.

[7] = Transmittance at 0.01% w/v in propylene carbonate; type: physicochemical
Experimental: The samples were prepared at 0.01% w/v in propylene carbonate.

[8] = FTIR-ATR cure test of hybrid formulations (acrylate, epoxide conversion, 1100 cm^-1 peak growth); settings: 405 nm; for Epoxide cure compared with Omnicat 550: 0.5% TPO-L, matched with control SC938/CPTX; for Epoxide cure compared with Omnicat 550 / acrylate cure with or without radical photoinitiator: high or low epoxide hybrid systems; for epoxide cure and total cationic cure compared with Omnicat 550 and SC992: in presence or absence of radical photoinitiator
Experimental: Matrixes: In a 1000 mL of metal can, formulation matrix was charged according to the percentage in Table 12. The 1000-1005 g mixture of each matrix sample was prepared and mixed by mechanical mixer for about 1 hour around 60° C. until the solution became clear. Formulations: In a white max 50 jar from FlackTek Inc., photoinitiator and propylene carbonate were loaded at first, mixed by hand with stainless steel spatula, placed in 60° C. oven for about 1 h, mixed again until it became clear. Then, formulation matrix was charged according to the percentage in one of Table 13 to 21. The […]-52.60 g mixture of each sample was prepared and mixed for 3 minutes at 3000 RPM in Speed Mixer from FleackTec Inc. Then, all jars were placed in 60° C. oven for about 2 h, taken out and immediately mixed for another 2 minutes until the solution became clear.
A Fourier Transform Infrared (FTIR) with an Attenuated Total Reflection (ATR) setup was used. All polymerization rate measurements were performed using Nicolet iS50 FT-IR Spectrometer from Thermo Scientific, equipped with a standard DLaTGS detector. A lamp holder for the ART platform of FTIR unit can be customized and printed from Arkema N3xtDimention® engineered resin N3D-TOUGH784 in order to ensure precisely fit of a 365 nm lamp Accucure ULM-2-365 or a 405 nm lamp Accucure ULM-2-405 from Digital Light Labs. On the bottom of this lamp holder, a dry air channel is built in to allow air uniformly blowing over sample surface, the gas flow rate can be controlled over a rotameter. The LED light was manually triggered by Ultraviolet illumination & Measurement System. LED light exposure can be programed by AccuCure software. For measurement, 25 μL of liquid sample was placed in the center of an ATR crystal. 3 mil of thin film was prepared by a customized coating applicator (3 mil WFM, G1046 from BYK). The LED lamp with holder was place on the top of ART platform. Then FTIR scan was initiated to collect liquid IR spectrum at first. Each IR spectrum of a specific exposure time at 10 mW/cm^2 of LED light were collected. Measurements of acrylate conversion were taken at the peak height under the reference peak around 1727 cm^−1; the acrylate peak of SR833S at approximately 1407 cm^−1, the epoxide peak of UviCure S105 at approximately 790 cm^−1, and the oxetane peak of UViCure S130 at approximately 970 cm^−1 were also measured. Since the ring opening of both epoxide and oxetane generated C—O—C bond, the growth of C—O—C IR peak height at ~1100 cm^−1 was monitored as well. The resulting of peak 1100 cm^−1 growth rate could be calculated to assess total cationic cure speed. Peak heights were determined using the same baseline where a baseline is chosen to be the two lowest points between 600 cm^−1 and 1800 cm^−1. The peak height under the peak and above the baseline was then determined. The integration limits for liquid and the cured sample are not identical but are similar, especially for the reference peak.
The ratios of the acrylate peak height, epoxide peak height, ring opening peak height from both epoxide and oxetane to the reference peak height were determined for both the liquid and the cured samples. Degree of cure or conversion or peak growth rate, expressed as percentage reacted acrylate or epoxide or ring opening of both epoxide and oxetane, was calculated from the equation below: […]
Where Rliq is the peak height ratio of the liquid sample and Rc is the peak height ratio of the LED cured sample. The resulting acrylate and epoxide conversions or C—O—C growth rates were collected and listed in Tables 13 to 21, plotted in FIG. 1 to 8 and FIG. 10.

[9] = UV Vis spectra measurement; type: physicochemical; settings: order 5>1>2 (comp.) ~4 (comp.); 10 ppm in acetonitrile
From the text: UV-Vis spectrum of each sample was taken with a Shimadzu UV1800 spectrophotometer using a 1.0 cm path of cuvette quartz cell in accordance with ASTM E169-04, and scanning the spectrum over the wavelength range of 450 to 200 nm.

[10] = LED @365 nm (120 W/cm^2), PI loading 1 wt % (Omnicat BL 550 4 wt %; Speedcure 938/CPTX 1/0.5 wt %)

**Q.** What does the source list for CC(C)c1ccc2sc3ccc(-[s+]4c5ccccc5c(=O)c5cc(C(C)C)ccc54)cc3c(=O)c2c1 (stereo not shown) [Photoinitiator 1, 9-oxo-10-[9-oxo-7-(propan-2-yl)-9H-thioxanthen-2-yl]-2-(propan-2-yl)-9H-thioxanthen-10-ium hexafluorophosphate]?
**A.** Polymerization rate Rp/[M0]*100 [1, 10]: 8.93 s⁻¹; Final conversion ([1]; LED @365 nm (120 W/cm^2)): 35%; Polymerization rate Rp/[M0]*100 ([1]; LED @385 nm (160 W/cm^2)): 8.89 s⁻¹; Final conversion ([1]; LED @385 nm (160 W/cm^2)): 36%; Acrylate Polymerization rate Rp/[M0]*100 [2]: 3.43 s⁻¹; Acrylate Final conversion [2]: 38%; Acrylate Final conversion [3]: 83%; Acrylate Polymerization rate Rp/[M0]*100 [3]: 10.57 s⁻¹; Epoxy Final conversion [3]: 47%; Epoxy Polymerization rate Rp/[M0]*100 [3]: 8.12 s⁻¹; Solubility in propylene carbonate [4]: >50 wt %; onset temperature of thermal polymerisation [5]: ~220° ° C.; onset temperature of thermal polymerisation [6]: 133 °C; % Transmittance at 355 nm [7]: 8.0%; % Transmittance at 420 nm [7]: 90.3%; Epoxide cure compared with Omnicat 550 [8]: better than that from Omnicat 550; UV absorption at 405 nm [9]: much higher than Omnicat 550 and SC 992S

**Q.** Which results are given for Cc1ccc([S+](c2ccc(C(=O)c3ccccc3)cc2)c2ccc3sc4ccc(C(C)C)cc4c(=O)c3c2)cc1 (stereo not shown) [Photoinitiator 2, (4-benzoylphenyl)(4-methylphenyl)[9-oxo-7-(propan-2-yl)-9H-thioxanthen-2-yl]sulfonium Hexafluorophosphate]?
**A.** Polymerization rate Rp/[M0]*100 [1, 10]: 4.11 s⁻¹; Final conversion ([1]; LED @365 nm (120 W/cm^2)): 41%; Polymerization rate Rp/[M0]*100 ([1]; LED @385 nm (160 W/cm^2)): 5.96 s⁻¹; Final conversion ([1]; LED @385 nm (160 W/cm^2)): 41%; cure speed compared with photoinitiators known from prior art such as Omnicat BL 550 [1]: higher cure speed; Acrylate Polymerization rate Rp/[M0]*100 [2]: 4.58 s⁻¹; Acrylate Final conversion [2]: 53%; Acrylate Final conversion [3]: 81%; Acrylate Polymerization rate Rp/[M0]*100 [3]: 11.56 s⁻¹; Epoxy Final conversion [3]: 45%; Epoxy Polymerization rate Rp/[M0]*100 [3]: 6.12 s⁻¹; Solubility in propylene carbonate [4]: >48 wt %; onset temperature of thermal polymerisation [5]: ~240° ° C.; onset temperature of thermal polymerisation [6]: 117 °C; % Transmittance at 355 nm [7]: 19.7%; % Transmittance at 420 nm [7]: 94.3%; UV absorption at 405 nm [9]: much higher than Omnicat 550 and SC 992S

**Q.** What does the source list for CCc1cc(CC)c2sc3ccc([S+](c4ccc(C)cc4)c4ccc(C(=O)c5ccccc5)cc4)cc3c(=O)c2c1 (stereo not shown) [Photoinitiator 4, (4-benzoylphenyl)(5,7-diethyl-9-oxo-9H-thioxanthen-2-yl)(4-methylphenyl)sulfonium Hexafluorophosphate]?
**A.** Polymerization rate Rp/[M0]*100 [1, 10]: 5.74 s⁻¹; Final conversion ([1]; LED @365 nm (120 W/cm^2)): 25%; Polymerization rate Rp/[M0]*100 ([1]; LED @385 nm (160 W/cm^2)): 4.80 s⁻¹; Final conversion ([1]; LED @385 nm (160 W/cm^2)): 25%; cure speed compared with photoinitiators known from prior art such as Omnicat BL 550 [1]: higher cure speed; Acrylate Polymerization rate Rp/[M0]*100 [2]: 5.70 s⁻¹; Acrylate Final conversion [2]: 64%; Acrylate Final conversion [3]: 83%; Acrylate Polymerization rate Rp/[M0]*100 [3]: 12.20 s⁻¹; Epoxy Final conversion [3]: 45%; Epoxy Polymerization rate Rp/[M0]*100 [3]: 6.29 s⁻¹; Solubility in propylene carbonate [4]: >47 wt %; % Transmittance at 355 nm [7]: 6.8%; % Transmittance at 420 nm [7]: 83.3%; Epoxide cure compared with Omnicat 550 [8]: better than that from Omnicat 550; acrylate cure with or without radical photoinitiator [8]: high acrylate cure; epoxide cure and total cationic cure compared with Omnicat 550 and SC992 ([8]; hybrid systems): better epoxide cure and total cationic cure than Omnicat 550 and SC992; acrylate cure in presence of BKL or XKm, or without any radical initiator ([8]; hybrid systems, like SC938/CPTX): could cure acrylate very well; UV absorption at 405 nm [9]: much higher than Omnicat 550 and SC 992S

**Q.** For CCCOc1ccc(Cl)c2c(=O)c3cc(-[s+]4c5ccccc5c(=O)c5c(Cl)ccc(OCCC)c54)ccc3sc12 (stereo not shown) [Photoinitiator 5, 1-chloro-10-(8-chloro-9-oxo-5-propoxy-9H-thioxanthen-2-yl)-9-oxo-4-propoxy-9H-thioxanthen-10-ium Hexafluorophosphate], which “Polymerization rate Rp/[M0]*100” value [1, 10] is on record?
**A.** 6.57 s⁻¹

**Q.** What about the Final conversion ([1]; LED @365 nm (120 W/cm^2)) of the same compound?
**A.** 36%

**Q.** And the “Polymerization rate Rp/[M0]*100” value ([1]; LED @385 nm (160 W/cm^2))?
**A.** 5.90 s⁻¹

**Q.** What about the Final conversion ([1]; LED @385 nm (160 W/cm^2)) of the same compound?
**A.** 39%

**Q.** What about the “cure speed compared with photoinitiators known from prior art such as Omnicat BL 550” value [1] of the same compound?
**A.** higher cure speed

**Q.** What about the “Acrylate Polymerization rate Rp/[M0]*100” value [2] of the same compound?
**A.** 2.01 s⁻¹

**Q.** And the “Acrylate Final conversion” value [2]?
**A.** 51%

**Q.** And the “Acrylate Final conversion” value [3]?
**A.** 70%

**Q.** What about the “Acrylate Polymerization rate Rp/[M0]*100” value [3] of the same compound?
**A.** 6.03 s⁻¹

**Q.** And the “Epoxy Final conversion” value [3]?
**A.** 44%

**Q.** And the “Epoxy Polymerization rate Rp/[M0]*100” value [3]?
**A.** 3.87 s⁻¹

**Q.** And the “Solubility in propylene carbonate” value [4]?
**A.** 42 wt %

**Q.** What about the “onset temperature of thermal polymerisation” value [5] of the same compound?
**A.** ~214° ° C.

**Q.** What about the “onset temperature of thermal polymerisation” value [6] of the same compound?
**A.** 120 °C

**Q.** And the “% Transmittance at 355 nm” value [7]?
**A.** 0.8%

**Q.** What about the “% Transmittance at 420 nm” value [7] of the same compound?
**A.** 64.8%

**Q.** What about the “Epoxide cure compared with Omnicat 550” value [8] of the same compound?
**A.** better than that from Omnicat 550

**Q.** What about the “acrylate cure with or without radical photoinitiator” value [8] of the same compound?
**A.** high acrylate cure

**Q.** What about the “epoxide cure and total cationic cure compared with Omnicat 550 and SC992” value ([8]; hybrid systems) of the same compound?
**A.** better epoxide cure and total cationic cure than Omnicat 550 and SC992

**Q.** And the “UV absorption at 405 nm” value [9]?
**A.** much higher than Omnicat 550 and SC 992S

Source: US20260217983A1, “SULFONIUM SALT PHOTOINITIATORS AND METHODS OF LED CURING A COMPOSITION WITH SAID SULFONIUM SALT PHOTOINITIATORS” (ARKEMA FRANCE, priority 2022, published 2026)
